Consider 6 molecules from patent publication US20150004137A1, “NOVEL FORMS OF PLANT DEFENSINS” (Balmoral Australia Pty Ltd, priority 2011, published 2015).

“Also recorded” adds a separate entry of the source. Where no end group is shown, it is not given here.

For data set [1], the system named is U937 cells. The data set is described as follows: PI uptake membrane permeabilisation assay (flow cytometry). The class given is cell-based, human. Particulars: 30 minutes at 37° C. As to the method: FIG. 5B is a graphical representation showing the effect of rNaD1, rNaD1(D2L4A), or rNaD1(D2L5) on the permeabilisation of U937 cells. Cells were incubated with 10 μM of each defensin for 30 minutes at 37° C. upon which 1 μg/ml PI propidium iodide (PI) was added. The number of cells that stained positively for PI was determined by flow cytometry.
Cells were incubated with 10 μM of each defensin for 30 minutes at 37° C. upon which 1 μg/ml PI propidium iodide (PI) was added. The number of cells that stained positively for PI was determined by flow cytometry.
Cells were incubated with 5 μM of each defensin for 30 minutes at 37° C. upon which […] PI propidium iodide (PI) was added. The number of cells that stained positively for PI was determined by flow cytometry.
Unless otherwise stated, cells are re-suspended at a cell concentration of 4×10^5 cells/mL in complete culture RPMI-1640 medium supplemented with 10% FBS, 100 μ/mL penicillin and 100 μg/mL streptomycin, and are added to either a V-bottom 96-well plate or microfuge tubes. Cells are kept at 37° C., unless otherwise stated, during protein addition (5 μL) at various concentrations or the set concentration of 10 μM. Typically, cells are mixed with the heterogeneous defensin of interest and are incubated at 37° C. for 30 min. In certain experiments, cells are also incubated at either 4° C. or 37° C. for 2-60 min prior to flow cytometry analysis. Cells are added to an equal volume of complete culture medium containing 2 μg/mL propidium iodide (PI, Annexin V-FITC Apoptosis Detection Kit, Invitrogen) and are analysed immediately by flow cytometry using a FACSCanto cell sorter (Becton Dickson, Fanklin Lakes, N.J.) and Cell Quest Pro Software (Becton Dickson). Typically, 5000-10000 events per sample are collected and the resultant data is analysed using FlowJo software (Tree Star, Ashland, Oreg.). Cells are gated appropriately based on forward scatter (FSC) and side scatter (SSC), with the viable cells is determined by their ability to exclude PI. […]

Data set [2] is described as follows: Lipid binding assay on Echelon membrane lipid strips. Particulars: anti-NaD1 antibody detection, densitometry. The text has this:
FIG. 5C is an immunoblot depicting the lipid binding profile of rNaD1, rNaD1(D2L4A), or rNaD1(D2L5). Echelon™ membrane lipid strips were probed with the defensins and binding detected with a rabbit anti-NaD1 antibody followed by a horseradish peroxidase (HRP) conjugated donkey anti-rabbit IgG antibody.
Data is the mean of three replicate experiments±SEM.
Echelon™ membrane lipid strips were probed with the defensins and binding was detected with a rabbit anti-NaD1 antibody followed by a horseradish peroxidase (HRP) conjugated donkey anti-rabbit IgG antibody.
Membrane Lipid Strips™, PIP Strips™ and Sphingo Strips™ (Echelon Biosciences, Salt Lake City, Utah) were incubated with PBS/3% BSA for 1-2 h at RT to block non-specific binding. […] Membrane-bound protein was detected by probing the membrane strips with a rabbit anti-NaD1 polyclonal antibody (diluted 1:2000 with PBS/1% BSA) for 1 h at 4° C., followed by a HRP-conjugated donkey anti-rabbit IgG antibody (diluted 1:2000 with PBS/1% BSA) for 1 h at 4° C. After each antibody incubation, the membrane strips were washed extensively for 60 min at RT with PBS/0.1% Tween-20. Chemiluminescence was detected using the enhanced chemiluminescence (ECL) western blotting reagent (GE Healthcare BioSciences, NSW Australia) and exposed to Hyperfilm (GE Healthcare BioSciences, NSW, Australia) and developed using an Xomat (All-Pro-Imaging). […]

Data set [3] is described as follows: Cross-linking (BS3) study of lipid-mediated oligomerisation with PA. The conditions noted are these: 0.5 mM PA, 30 min room temperature, SDS-PAGE, immunoblot. How it is done: (§1) Molecular weight markers are indicated.
(§2) Protein samples at 1 mg ml^−1 (2.5 μl) were incubated with 0.5 mM PIP2 or PA (2.5 μl) at room temperature for 30 min. […] Samples were reduced and denatured, and subjected to SDS-PAGE.

For the next data set, the system named is tumour cells. The conditions noted are these: as disclosed in PCT/AU2011/000760 and U.S. Ser. No. 13/166,960; cited from earlier work.
Data set [4] is described as follows: Cross-linking (BS3) study of lipid-mediated oligomerisation with PIP2. Particulars: 0.5 mM PIP2, 30 min room temperature, SDS-PAGE, immunoblot. How it is done: as §1, §2
In general terms: In western blotting, separated proteins are transferred to a membrane and probed.

For data set [5] the following is noted: as described in PCT/AU2011/000760 and U.S. Ser. No. 13/166,960; cited from earlier work.
Data set [6] concerns U937 cells. The data set is described as follows: BODIPY-NaD1 binding to viable and permeabilised U937 cells (flow cytometry, 7AAD). Format: cell-based, human. The conditions noted are these: 10 μM, 37° C., 30 min. From the text:
The percentage of cells in each population (boxed) is indicated.
Background: A flow cytometer gives signals particle by particle.

The test system of a further data set is U937 and PC3 cells. The data set is described as follows: Subcellular localisation of BODIPY-NaD1 by CLSM. The class given is cell-based, human. Particulars: PI present, 12 minutes. As to the method: FIG. 2B is a series of micrographs examining the subcellular localisation of BODIPY-NaD1 in U937 and PC3 cells. U937 cells immobilised onto 10% poly-L-lysine coverslips or PC3 cells cultured as adherent monolayers on coverslips, were treated with […] BODIPY-NaD1 in the presence of 1 μg/ml PI for 12 minutes and cells imaged by CLSM. Scale bars represent 10 μm.
Live imaging was performed on a Zeiss LSM-510 confocal microscope using a 40× oil immersion objective in a 37° C./5% CO2 atmosphere. Adherent cells were cultured on coverslips prior to imaging while non-adherent cells were immobilized onto 10% poly-L-lysine-coated coverslips. All cell types were prepared for imaging in RPMI medium containing 0.1% BSA and […] PI. […] In certain experiments, cells were either, stained with PKH67 (Sigma-Aldrich) or transfected with plasmid construct for free GFP or GFP-PH(PLCδ) using Lipofectamine™ 2000 Reagent (Invitrogen) as per manufacturer's instructions prior to imaging. Transmission electron microscopy (TEM) imaging was performed according to a previously described procedure (Adda et al. 2009).

Data set [7] deals with the molecule itself. The experiment in a line: BS3 cross-linking in solution, SDS-PAGE and immunoblot; NaD2 was also efficiently multimerised by PA and not by PIP2. How it is done: FIG. 4B is an immunoblot depicting the lipid-mediated oligomerisation of the class II defensins NaD1 and TPP3, and the class I defensin NaD2. Each of the defensins at 250 ng/ml were incubated with 0.5 mM PIP2 or PA at room temperature for 30 minutes and samples then treated with the cross-linker bis[sulfosuccinimidyl] suberate (BS³) at 12.5 mM for a further 30 minutes, Samples were reduced and denatured, separated by SDS-PAGE, and examined by immunoblotting with an anti-NaD1 (NaD1 and TPP3) or anti-NaD2 (NaD2) antibody. Molecular weight markers are indicated.

On to “rNaD1: NaD1 purified from P. pastoris (recombinant NaD1) (RECKTESNTFPGICITKPPCRKACISEKFTDGHCSKILRRCLCTKPC; recombinant, Pichia pastoris; UniProt Q8GTM0 26-72, looked up)”, for which, in the data set with U937 cells [1] (10 μM of each defensin), the “permeabilisation of U937 cells (cells stained positively for PI)” value (“permeabilisation of U937 cells” below) was “permeabilised U937 cells”. In addition, the “lipid binding profile (lipid bound most strongly / preferred)” value in data set [2] is “bound most strongly to PIP2”.

Regarding “R40E: NaD1 mutant, loop 5 residue R40 replaced with glutamic acid (RECKTESNTFPGICITKPPCRKACISEKFTDGHCSKILRECLCTKPC; UniProt Q8GTM0 26-72, looked up, variant R40E)”, the “permeabilisation of U937 cells” value in the data set with U937 cells [1] (5 μM of each defensin) is recorded as “greatly reduced ability to permeabilise U937 cells”.

Consider “RTCESQSHRFKGPCARDSNCATVCLTEGFSGGDCRGFRRRCFCTRPC (listed as Nicotiana alata) [NaD2]”, for which the “multimerisation (oligomer formation) mediated by PA” value in data set [3] is reported as “forms oligomers with PA; also recorded: efficiently multimerised by PA”. Also, in the data set on tumour cells, the tumour cell killing entry is “does not kill tumour cells”. In data set [4], the “multimerisation (oligomer formation) mediated by PIP2” value is given as “not PIP2”. In addition, the “lipid binding preference / ligand” value in [5] is recorded as “preferentially binds PA over PIP2; also recorded: does not bind PIP2”.

Regarding “BODIPY-NaD1: BODIPY-labelled NaD1 (RECKTESNTFPGICITKPPCRKACISEKFTDGHCSKILRRCLCTKPC; cysteine pairing not given here; also: BODIPY label (position not given here); UniProt Q8GTM0 26-72, looked up)”, the “binding to U937 cells” value in the data set on U937 cells [6] (7AAD, flow cytometry) was “bound to both viable (7AAD negative) and permeabilised (7AAD positive) U937 cells”. In the data set on U937 cells [6] (compared with unlabelled NaD1), the “membrane permeabilisation of U937 (7AAD)” value is reported as “comparable level to unlabelled NaD1”. The “subcellular localisation on permeabilised tumor cells” value in the data set on U937 and PC3 cells is “accumulation of BODIPY-NaD1 at the membrane bleb(s), cytoplasm, nucleolus and possibly at certain cytoplasmic organelles”.

On to “K36E: NaD1 mutant, loop 5 residue K36 replaced with glutamic acid (RECKTESNTFPGICITKPPCRKACISEKFTDGHCSEILRRCLCTKPC; UniProt Q8GTM0 26-72, looked up, variant K36E)”, for which the “permeabilisation of U937 cells” value in the data set on U937 cells [1] (5 μM of each defensin) was “greatly reduced ability to permeabilise U937 cells”.

Take RTCESQSHRFKGPCARDSNCATVCLTEGFSGGDCRGFRRRCFCTRPC (other) [NaD2 (Class I plant defensin)]: the binding result in data set [7] is listed as “binds”.
